The values that follow are results of earlier work, collected in patent publication US20080269311A1, “Combination of Dpp-Iv Inhibitors and Compounds Modulating 5-Ht3 and/or 5-Ht4 Receptors” (priority 2004, published 2008).

This series concerns the target T1, 5-HT3 receptor subtype (Homo sapiens, UniProt P46098).
T1 sequence (P46098 24-478): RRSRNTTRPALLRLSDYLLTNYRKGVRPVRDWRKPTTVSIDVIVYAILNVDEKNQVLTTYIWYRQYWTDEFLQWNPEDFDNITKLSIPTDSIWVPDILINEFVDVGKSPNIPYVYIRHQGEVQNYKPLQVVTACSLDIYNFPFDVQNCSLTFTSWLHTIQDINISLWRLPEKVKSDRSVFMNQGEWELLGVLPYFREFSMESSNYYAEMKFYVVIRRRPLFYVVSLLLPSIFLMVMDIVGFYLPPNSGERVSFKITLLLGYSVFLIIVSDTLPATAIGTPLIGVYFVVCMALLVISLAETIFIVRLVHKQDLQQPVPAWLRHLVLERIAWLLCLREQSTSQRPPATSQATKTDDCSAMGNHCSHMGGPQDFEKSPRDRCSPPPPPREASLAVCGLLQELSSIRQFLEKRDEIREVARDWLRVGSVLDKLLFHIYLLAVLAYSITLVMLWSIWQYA

Regarding `CCCCCNC(=N)NN=Cc1c[nH]c2ccc(OC)cc12` [Tegaserod, 3-(5-methoxy-1H-indol-3-yl-methylene)-N-pentylcarbazimidamide], the “binding to or stimulation of the 5-HT3 receptor subtype (selectivity)” value is listed as “does neither bind to nor stimulate”.
